Values joined by “and” are separate entries in the source; they are usually repeats but may differ in a detail not shown here. Equal entries are not always repeated. Toxic doses and inconclusive results are not listed.
Tested on: L1210 leukemia ip in BDF1 mice, survival T/C
Experiment: NCI In Vivo Anticancer Drug Screen. Data for tumor model L1210 Leukemia (intraperitoneal) in B6D2F1 (BDF1) mice
Conditions: endpoint: mean survival time, higher = longer survival
In short: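 Transplanted-tumor mice were given test agent; controls received vehicle only. Survival readings from the two groups were divided (treated over control).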

[1] = dose: 100.0 mg/kg/injection, schedule: Q01DX001 (ip), vehicle: saline
[2] = dose: 200.0 mg/kg/injection, schedule: Q01DX001 (ip), vehicle: saline
[3] = dose: 400.0 mg/kg/injection, schedule: Q01DX001 (ip), vehicle: saline
[4] = dose: 100.0 mg/kg/injection, schedule: Q01DX001 (ip), vehicle: carboxymethylcellulose (CMC)
[5] = dose: 200.0 mg/kg/injection, schedule: Q01DX001 (ip), vehicle: carboxymethylcellulose (CMC)
[6] = dose: 400.0 mg/kg/injection, schedule: Q01DX001 (ip), vehicle: carboxymethylcellulose (CMC)
[7] = dose: 100.0 mg/kg/injection, schedule: Q01DX009 (ip), vehicle: Klucel (hydroxypropylcellulose) (HPC)
[8] = dose: 200.0 mg/kg/injection, schedule: Q01DX009 (ip), vehicle: Klucel (hydroxypropylcellulose) (HPC)
[9] = dose: 400.0 mg/kg/injection, schedule: Q01DX009 (ip), vehicle: Klucel (hydroxypropylcellulose) (HPC)
[10] = dose: 50.0 mg/kg/injection, schedule: Q01DX001 (ip), vehicle: saline

COC(=O)/C=C/C(Oc1ccc(C)cc1)C(=O)OC (configuration not stated)
T/C (dose: 75.0 mg/kg/injection, schedule: Q04DX003 (ip), vehicle: other): 98 % of control | T/C (dose: 150.0 mg/kg/injection, schedule: Q04DX003 (ip), vehicle: other): 96 % of control | T/C (dose: 300.0 mg/kg/injection, schedule: Q04DX003 (ip), vehicle: other): 98 % of control

CCCCC(=O)c1cc2ccccc2c2ccccc12
T/C [1]: 94 % of control | T/C [2]: 88 % of control | T/C [3]: 98 % of control

Nc1nc(N)c2c(n1)SCC(c1ccc(Cl)cc1)=N2
T/C (dose: 75.0 mg/kg/injection, schedule: Q01DX001 (ip), vehicle: other): 101 % of control | T/C (dose: 150.0 mg/kg/injection, schedule: Q01DX001 (ip), vehicle: other): 98 % of control

O=C1c2ccccc2-c2cc(Br)c(NC(=O)C(Cl)Cl)cc21
T/C [4]: 115 % of control | T/C [5]: 98 % of control | T/C [6]: 98 % of control

O=C1COC2CCCCC2O1 (configuration not stated)
T/C [4]: 108 % of control | T/C [5]: 101 % of control | T/C [6]: 106 % of control

O=C(COc1cccc(Cl)c1)Nc1ccccc1S(=O)(=O)F
T/C (dose: 100.0 mg/kg/injection, schedule: Q04DX003 (ip), vehicle: other): 89 % of control | T/C (dose: 200.0 mg/kg/injection, schedule: Q04DX003 (ip), vehicle: other): 87 % of control | T/C (dose: 400.0 mg/kg/injection, schedule: Q04DX003 (ip), vehicle: other): 98 % of control

Cc1ccc(S(=O)(=O)Nc2ccc(Br)cc2)cc1
T/C [4]: 105 % of control | T/C [5]: 105 % of control | T/C [6]: 107 % of control

Clc1ccccc1C1Nc2ccccc2S1 (configuration not stated)
T/C [1]: 109 % of control | T/C [2]: 104 % of control | T/C [3]: 99 % of control

COc1cccc(/C(=C/c2ccc([N+](=O)[O-])cc2)C(=O)Nc2ccc(S(=O)(=O)F)cc2)c1
T/C [7]: 101 % of control | T/C [8]: 90 % of control | T/C [9]: 90 % of control

Cc1ccc(CCn2cnc3c(=S)nc[nH]c32)cc1
T/C [10]: 98 % of control | T/C [1]: 93 % of control | T/C [2]: 104 % of control | T/C [3]: 93 % of control

O=C(Nc1cccc(Cl)c1)Nc1ccc(Br)c(C(F)(F)F)c1
T/C (dose: 50.0 mg/kg/injection, schedule: Q01DX001 (ip), vehicle: carboxymethylcellulose (CMC)): 100 % of control | T/C [4]: 94 % of control | T/C [5]: 96 % of control | T/C [6]: 94 % of control

Cc1cc2nc3c(nc2cc1C)C1CC(Br)CCC1N3 (configuration not stated)
T/C [1]: 97 % of control | T/C [2]: 95 % of control | T/C [3]: 91 % of control

Cc1c(CNc2ccc(C(=O)NC(CC(=O)O)CC(=O)O)cc2)ccc2nc(N)nc(N)c12
T/C (dose: 0.11 mg/kg/injection, schedule: Q01DX009 (ip), vehicle: saline): 97 % of control | T/C (dose: 0.15 mg/kg/injection, schedule: Q01DX009 (ip), vehicle: saline): 107 % of control | T/C (dose: 0.17 mg/kg/injection, schedule: Q01DX009 (ip), vehicle: saline): 178 % of control | T/C (dose: 0.27 mg/kg/injection, schedule: Q01DX009 (ip), vehicle: saline): 161 % of control | T/C (dose: 0.62 mg/kg/injection, schedule: Q01DX009 (ip), vehicle: saline): 156 % of control and 187 % of control | T/C (dose: 1.25 mg/kg/injection, schedule: Q01DX009 (ip), vehicle: saline): 112 % of control and 121 % of control | T/C (dose: 2.5 mg/kg/injection, schedule: Q04DX003 (ip), vehicle: saline): 175 % of control | T/C (dose: 4.4 mg/kg/injection, schedule: Q01DX009 (ip), vehicle: other): 91 % of control | T/C (dose: 10.0 mg/kg/injection, schedule: Q01DX001 (ip), vehicle: other): 173 % of control | T/C (dose: 10.0 mg/kg/injection, schedule: Q01DX001 (ip), vehicle: saline): 168 % of control | T/C (dose: 10.0 mg/kg/injection, schedule: Q04DX003 (ip), vehicle: saline): 102 % of control | T/C (dose: 20.0 mg/kg/injection, schedule: Q01DX001 (ip), vehicle: saline): 151 % of control

O=[N+]([O-])c1ccc(C2CCCCC2)cc1
T/C (dose: 25.0 mg/kg/injection, schedule: Q04DX002 (ip), vehicle: Klucel (hydroxypropylcellulose) (HPC)): 109 % of control | T/C (dose: 50.0 mg/kg/injection, schedule: Q04DX002 (ip), vehicle: Klucel (hydroxypropylcellulose) (HPC)): 109 % of control | T/C (dose: 100.0 mg/kg/injection, schedule: Q04DX002 (ip), vehicle: Klucel (hydroxypropylcellulose) (HPC)): 102 % of control

CCOC(=O)C(CNc1cccc2ccncc12)C(=O)OCC
T/C (dose: 50.0 mg/kg/injection, schedule: Q01DX009 (ip), vehicle: saline with Tween-80): 109 % of control | T/C (dose: 100.0 mg/kg/injection, schedule: Q01DX009 (ip), vehicle: saline with Tween-80): 94 % of control | T/C (dose: 200.0 mg/kg/injection, schedule: Q01DX009 (ip), vehicle: saline with Tween-80): 115 % of control

O=[N+]([O-])c1ccc(C[Se]c2ncnc3c2ncn3C2OC(CO)C(O)C2O)cc1 (configuration not stated)
T/C (dose: 3.12 mg/kg/injection, schedule: Q01DX009 (ip), vehicle: saline): 100 % of control | T/C (dose: 6.25 mg/kg/injection, schedule: Q01DX005 (ip), vehicle: saline): 106 % of control | T/C (dose: 6.25 mg/kg/injection, schedule: Q01DX009 (ip), vehicle: saline): 98 % of control | T/C (dose: 12.5 mg/kg/injection, schedule: Q01DX005 (ip), vehicle: saline): 96 % of control | T/C (dose: 12.5 mg/kg/injection, schedule: Q01DX009 (ip), vehicle: saline): 98 % of control | T/C (dose: 12.5 mg/kg/injection, schedule: Q01DX009 (ip), vehicle: water): 93 % of control | T/C (dose: 25.0 mg/kg/injection, schedule: Q01DX005 (ip), vehicle: saline): 109 % of control | T/C (dose: 25.0 mg/kg/injection, schedule: Q01DX009 (ip), vehicle: saline): 102 % of control | T/C (dose: 25.0 mg/kg/injection, schedule: Q01DX009 (ip), vehicle: water): 98 % of control | T/C (dose: 50.0 mg/kg/injection, schedule: Q01DX009 (ip), vehicle: water): 93 % of control

C/C(CCC(=O)O)=N/Nc1nnc(N/N=C(/C)CCC(=O)O)c2ccccc12
T/C [10]: 102 % of control | T/C [1]: 102 % of control | T/C [2]: 102 % of control | T/C [3]: 120 % of control

Nc1cc2ccccc2c(O)c1O
T/C (dose: 100.0 mg/kg/injection, schedule: Q04DX003 (ip), vehicle: saline sonified): 93 % of control | T/C (dose: 200.0 mg/kg/injection, schedule: Q04DX003 (ip), vehicle: saline sonified): 96 % of control | T/C (dose: 400.0 mg/kg/injection, schedule: Q04DX003 (ip), vehicle: saline sonified): 90 % of control

CC(=O)OC(C)C1C2=C(C(=O)CC1(C)O)C(=O)c1c(ccc(-c3ccc4c(c3O)C(=O)C3=C(C4=O)C(C(C)OC(C)=O)C(C)(O)CC3=O)c1O)C2=O (configuration not stated)
T/C (dose: 6.25 mg/kg/injection, schedule: Q01DX009 (ip), vehicle: saline with Tween-80): 111 % of control | T/C (dose: 12.5 mg/kg/injection, schedule: Q01DX009 (ip), vehicle: saline with Tween-80): 109 % of control

NCC(=O)c1cc2ccccc2[n+]([O-])c1
T/C [7]: 87 % of control | T/C (dose: 100.0 mg/kg/injection, schedule: Q04DX003 (ip), vehicle: Klucel (hydroxypropylcellulose) (HPC)): 92 % of control | T/C [8]: 93 % of control | T/C (dose: 200.0 mg/kg/injection, schedule: Q04DX003 (ip), vehicle: Klucel (hydroxypropylcellulose) (HPC)): 97 % of control | T/C [9]: 93 % of control | T/C (dose: 400.0 mg/kg/injection, schedule: Q04DX003 (ip), vehicle: Klucel (hydroxypropylcellulose) (HPC)): 97 % of control

O=C(Nc1ccc2c(c1)Cc1cc([N+](=O)[O-])ccc1-2)C(F)(F)F
T/C (dose: 100.0 mg/kg/injection, schedule: Q04DX003 (ip), vehicle: saline with Tween-80): 94 % of control | T/C (dose: 200.0 mg/kg/injection, schedule: Q04DX003 (ip), vehicle: saline with Tween-80): 94 % of control | T/C (dose: 400.0 mg/kg/injection, schedule: Q04DX003 (ip), vehicle: saline with Tween-80): 94 % of control

CN1CCCN(CCOC(c2ccccc2)c2ccccc2)CC1
T/C (dose: 55.0 mg/kg/injection, schedule: Q01DX Z (ip), vehicle: methylcellulose (MC)): 93 % of control | T/C (dose: 83.0 mg/kg/injection, schedule: Q01DX Z (ip), vehicle: methylcellulose (MC)): 92 % of control

CCN(CC)CCCNc1cc(OC)cc2cccnc12
T/C (dose: 10.0 mg/kg/injection, schedule: Q01DX001 (ip), vehicle: carboxymethylcellulose (CMC)): 107 % of control | T/C (dose: 20.0 mg/kg/injection, schedule: Q01DX001 (ip), vehicle: carboxymethylcellulose (CMC)): 101 % of control

Reference: PubChem BioAssay AID248 (DTP/NCI, 2004)
